Test results: PubChem BioAssay (NCI)
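GI50: concentration for 50% inhibition of growth. TGI denotes the concentration required for complete inhibition of growth.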

What was measured:
Assay in all cases: NCI anticancer screen, dose series, 384-well format
M14 melanoma = system: M14 melanoma
OVCAR-4 ovarian = system: OVCAR-4 ovarian
COLO 205 colon = system: COLO 205 colon
U251 glioblastoma = system: U251 glioblastoma
HOP-62 NSCLC = system: HOP-62 NSCLC
EKVX NSCLC = system: EKVX NSCLC
HT29 colon = system: HT29 colon
SNB-75 CNS = system: SNB-75 CNS
MALME-3M melanoma = system: MALME-3M melanoma
PC-3 prostate = system: PC-3 prostate
NCI-H460 NSCLC = system: NCI-H460 NSCLC
NCI-H23 lung = system: NCI-H23 lung
SF-539 CNS = system: SF-539 CNS
SK-MEL-5 melanoma = system: SK-MEL-5 melanoma
SK-MEL-2 melanoma = system: SK-MEL-2 melanoma
NCI/ADR-RES ovarian = system: NCI/ADR-RES ovarian
BT-549 breast = system: BT-549 breast
MCF7 breast = system: MCF7 breast
SK-MEL-28 melanoma = system: SK-MEL-28 melanoma
OVCAR-3 ovarian = system: OVCAR-3 ovarian
HCT-116 colon = system: HCT-116 colon
HCC-2998 colon = system: HCC-2998 colon
A549 NSCLC = system: A549 NSCLC
NCI-H522 lung = system: NCI-H522 lung
CAKI-1 renal = system: CAKI-1 renal
TK-10 renal = system: TK-10 renal
MOLT-4 leukemia = system: MOLT-4 leukemia
HL-60(TB) leukemia = system: HL-60(TB) leukemia
SNB-19 CNS = system: SNB-19 CNS
NCI-H226 lung = system: NCI-H226 lung
OVCAR-8 ovarian = system: OVCAR-8 ovarian
RXF 393 renal = system: RXF 393 renal
K-562 leukemia = system: K-562 leukemia
ACHN renal = system: ACHN renal
SK-OV-3 ovarian = system: SK-OV-3 ovarian
SW-620 colon = system: SW-620 colon
DU-145 prostate = system: DU-145 prostate
MDA-MB-231 breast = system: MDA-MB-231 breast
OVCAR-5 ovarian = system: OVCAR-5 ovarian
HCT-15 colon = system: HCT-15 colon
CCRF-CEM leukemia = system: CCRF-CEM leukemia
HOP-92 NSCLC = system: HOP-92 NSCLC
A498 renal = system: A498 renal
786-0 renal = system: 786-0 renal
IGROV1 ovarian = system: IGROV1 ovarian
RPMI-8226 leukemia = system: RPMI-8226 leukemia
T-47D breast = system: T-47D breast

Q: What does the source list for `NC(=O)c1cccc2cn(-c3ccc([C@@H]4CCCNC4)cc3)nc12`?
A: GI50 (M14 melanoma): 4.68 µM; TGI (M14 melanoma): 15.8 µM; GI50 (OVCAR-4 ovarian): 25.2 µM; TGI (OVCAR-4 ovarian): 44.5 µM; GI50 (COLO 205 colon): 11 µM; TGI (COLO 205 colon): 23.2 µM; GI50 (U251 glioblastoma): 12.2 µM; TGI (U251 glioblastoma): 25.1 µM; GI50 (HOP-62 NSCLC): 3.12 µM; TGI (HOP-62 NSCLC): 11.3 µM; GI50 (EKVX NSCLC): 17.7 µM; TGI (EKVX NSCLC): 34.7 µM; GI50 (HT29 colon): 13.4 µM; TGI (HT29 colon): 26.6 µM; GI50 (SNB-75 CNS): 4.68 µM; TGI (SNB-75 CNS): 16.5 µM; GI50 (MALME-3M melanoma): 12.8 µM; TGI (MALME-3M melanoma): 25.6 µM; GI50 (PC-3 prostate): 15.4 µM; TGI (PC-3 prostate): 46.6 µM; GI50 (NCI-H460 NSCLC): 3.06 µM; TGI (NCI-H460 NSCLC): 13.4 µM; GI50 (NCI-H23 lung): 5.93 µM; TGI (NCI-H23 lung): 19.6 µM; GI50 (SF-539 CNS): 5.66 µM; TGI (SF-539 CNS): 18.2 µM; GI50 (SK-MEL-5 melanoma): 7.81 µM; TGI (SK-MEL-5 melanoma): 19.4 µM; GI50 (SK-MEL-2 melanoma): 23.2 µM; TGI (SK-MEL-2 melanoma): 37.9 µM; GI50 (NCI/ADR-RES ovarian): 13.5 µM; TGI (NCI/ADR-RES ovarian): 29.6 µM; GI50 (BT-549 breast): 9.95 µM; TGI (BT-549 breast): 22 µM; GI50 (MCF7 breast): 6.48 µM; TGI (MCF7 breast): 18.8 µM; GI50 (SK-MEL-28 melanoma): 16.2 µM; TGI (SK-MEL-28 melanoma): 29.9 µM; GI50 (OVCAR-3 ovarian): 18.3 µM; TGI (OVCAR-3 ovarian): 33 µM; GI50 (HCT-116 colon): 4.73 µM; TGI (HCT-116 colon): 18.3 µM; GI50 (HCC-2998 colon): 14 µM; TGI (HCC-2998 colon): 27.1 µM; GI50 (A549 NSCLC): 11.8 µM; TGI (A549 NSCLC): 24.5 µM; GI50 (NCI-H522 lung): 15.1 µM; TGI (NCI-H522 lung): 29 µM; GI50 (CAKI-1 renal): 11.1 µM; TGI (CAKI-1 renal): 23.3 µM; GI50 (TK-10 renal): 16.2 µM; TGI (TK-10 renal): 34 µM; GI50 (MOLT-4 leukemia): 1.49 µM; TGI (MOLT-4 leukemia): 2.83 µM; GI50 (HL-60(TB) leukemia): 1.85 µM; TGI (HL-60(TB) leukemia): 3.88 µM; GI50 (SNB-19 CNS): 18.3 µM; TGI (SNB-19 CNS): > 54.2 µM; GI50 (NCI-H226 lung): 12.5 µM; TGI (NCI-H226 lung): 25.2 µM; GI50 (OVCAR-8 ovarian): 7.24 µM; TGI (OVCAR-8 ovarian): 20.6 µM; GI50 (RXF 393 renal): 16.7 µM; TGI (RXF 393 renal): 30.5 µM; GI50 (K-562 leukemia): 10.1 µM; TGI (K-562 leukemia): 21.8 µM; GI50 (ACHN renal): 9.72 µM; TGI (ACHN renal): 21.7 µM; GI50 (SK-OV-3 ovarian): 11.7 µM; TGI (SK-OV-3 ovarian): 28.8 µM; GI50 (SW-620 colon): 6.05 µM; TGI (SW-620 colon): 22.4 µM; GI50 (DU-145 prostate): 4.89 µM; TGI (DU-145 prostate): 16.1 µM; GI50 (MDA-MB-231 breast): 14.7 µM; TGI (MDA-MB-231 breast): 29 µM; GI50 (OVCAR-5 ovarian): 24 µM; TGI (OVCAR-5 ovarian): 59.6 µM; GI50 (HCT-15 colon): 11.9 µM; TGI (HCT-15 colon): 24.8 µM; GI50 (CCRF-CEM leukemia): 1.83 µM; TGI (CCRF-CEM leukemia): 3.71 µM; GI50 (HOP-92 NSCLC): 14.3 µM; TGI (HOP-92 NSCLC): 28.3 µM; GI50 (A498 renal): 16.7 µM; TGI (A498 renal): 30.5 µM; GI50 ([…]-0 renal): 12.7 µM; TGI (786-0 renal): 26.3 µM; GI50 (IGROV1 ovarian): 12.9 µM; TGI (IGROV1 ovarian): 27.2 µM; GI50 (RPMI-8226 leukemia): 9.26 µM; TGI (RPMI-8226 leukemia): 23.1 µM; GI50 (T-47D breast): 12.6 µM; TGI (T-47D breast): 26.2 µM
